Assay type in all cases: cell-based
Assay [1] has as its system Staphylococcus aureus (g+) LMG 8064. In words: Poison Plate Assay, bacteria on Tryptose Agar. Particulars: ppm total active ingredient, growth evaluated after five days, 27° C. As for the experimental part: (§1) Experiment 1: Poison Plate Assay
(§2) • pyrimethanil (I-a) • cyprodinil (I-b) • mepanipyrim (I-c) Name of Component (II): • 1-hydroxy-2-pyridinone (II-a) • ciclopirox (II-b) • ciclopirox olamine (II-c) • piroctone (II-d) • piroctone olamine (II-e) • rilopirox (II-f) • pyrion disulfide (II-g) • sodium pyrithione (II-h) • zinc pyrithione (II-i) Test Models: • Fungi: to each well of a 24-well microtiter plate, 1000 μl of Glucose Agar (GA: 10 g glucose, 1.5 g K2HPO4, 2 g KH2PO4, 1 g (NH4)2SO4, 0.5 g MgSO4 and 12.5 g agar in 1 liter deionised water) containing the appropriate combination of the test compounds in one of the concentrations of a dose series is added. The nutrient medium is inoculated with the test fungi by adding a spore/mycelium suspension (10 μl) or a small piece of agar from the margin of an actively growing colony and incubated under dark at 27° C. with 70% relative humidity. […] The nutrient medium is inoculated by adding 10 μl of an actively growing liquid culture of the test bacteria in tryptose broth (without agar), and incubated under dark at 27° C. with 70% relative humidity. The growth is evaluated after five days. Concentrations: • Synergy experiment with hydroxypyridone: • MIC values for single compounds were collected from previous screening experiments. These MIC values were used as a guide in determining of the most suitable test dose ranges. For the combination experiments, two overlapping dose series were used, in order to maximise the chance of the MIC values falling within the test concentration range for all combinations: • Series 1: 50.00-37.50-28.13-21.09-15.82-11.87-8.90-6.67-5.01-3.75-2.82-2.11 ppm • Series 2: 25.00-18.75-14.06-10.55-7.91-5.93-4.45-3.34-2.50-1.88-1.41-1.06 ppm • Synergy experiments with bispyrithione and sodium pyrithione: 10.00-7.50-5.63-4.22-3.16-2.37-1.78-1.33-1.00-0.75-0.56-0.42 ppm
(§3) (2000) “Measuring synergy” cosmetics & Toiletries 115(11): 59-62; and Lada, A., A. N. Petrocci, H. A. Green, and J. J. Merianos (1977) “Antimicrobial composition” U.S. Pat. No. 4,061,750, 3 pp.): […]

In assay [2] the test system is Chaetomium globosum ATCC6205. In words: Poison Plate Assay, fungi on Glucose Agar. Particulars: % (I-a) + % (II-g), ppm total active ingredient, growth evaluated after two weeks, 27° C. As for the experimental part: as §1, §2, §3
Assay [3] deals with Ulocladium atrum IMI214699a. Briefly: Poison Plate Assay, fungi on Glucose Agar. The settings on record: % (I-a) + % (II-h), ppm total active ingredient, growth evaluated after two weeks, 27° C. As for the experimental part: as §1, §2, §3

Turning to `[O-][n+]1ccccc1SSc1cccc[n+]1[O-]` [(I-a) + (II-g) 0 + 100, pyrion disulfide], the MIC in assay [1] (LMG8064, 120 h, % (I-a) + % (II-g), read-out: MIC-values (minimum inhibitory concentration) in ppm) was 213 µg/mL; in assay [2] (ATCC6205, 336 h, read-out: MIC-values (minimum inhibitory concentration) in ppm) it was 40 µg/mL.
Take `Cc1cc(C)nc(Nc2ccccc2)n1` [(I-a) + (II-g) 100 + 0, pyrimethanil]: the “MIC-values (minimum inhibitory concentration) in ppm” value in assay [1] (% (I-a) + % (II-g)) is listed as 3.16 ppm; in assay [2] it was 1.78 ppm.
On to `Cc1cc(C)nc(Nc2ccccc2)n1` [(I-a) + (II-h) 100 + 0, pyrimethanil], for which the entries for the “MIC-values (minimum inhibitory concentration) in ppm” value in assay [1] (% (I-a) + % (II-h)) and in assay [3] were 4.22 ppm and 3.16 ppm, respectively.

These data come from patent publication US8575187B2, “Combinations of anilinopyrimidines and pyrion compounds” (Janssen Pharmaceutica, NV, priority 2008, dated 2013).
